Measurements reported in US20190040106A1, “USE OF HUMAN DERIVED IMMUNOSUPPRESSIVE PROTEINS AND PEPTIDES AS MEDICAMENTS” (AIMVION A/S, priority 2015, published 2019).
Bridge positions count the residues as written; N and C are the ends. Ends that are not written are not given here. Peptide text beside a SMILES is read from it. I, II: the chains in the order shown.

Assays:
[1] = test system: murine model of collagen-induced arthritis; experiment: Collagen-induced arthritis model (CIA model), Example 9; assay type: in vivo, female DBA/1J mice; set-up: key to terminal individual paw score, Front right, group mean / terminal individual paw score, Front left, group mean / terminal individual paw score, Rear right, group mean / terminal individual paw score, Rear left, group mean: paw score 0 = no arthritis to 4 = severe arthritis of entire paw; key to Arthritic Index (AI), group mean: sum of four paw scores, each 0 (no arthritis) to 4 (severe); max 16; details: for Arthritic Index (AI), group mean: peptide 4 μg/mouse, methotrexate 3 mg/kg, subcutaneous
Protocol: The CIA model is the “standard” animal model for evaluation of anti-arthritic activity based on immunization with bovine collagen to develop antibodies against bone and cartilage.
(§1) The aim was to determine anti-arthritic dosing paradigm in a murine model of collagen-induced arthritis. This study was carried out in female DBA/1J mice. The effect of the Env59 ISU peptides on disease development is compared with a methotrexate MTX (positive control) or saline treated control group.
Day 0: The mice were weighted and injected subcutaneously at the nape of the neck as in the table below (table 3):
(§2) An hour later, the mice were injected subcutaneously at the base of the tail with 50 μl of the collagen/CFA emulsion.
(§3) Mice were scored for signs of arthritis every Monday, Wednesday, and Friday during the next 41 days as follows: • Each paw receives a score • 0=no visible effects of arthritis • 1=edema and/or erythema of 1 digit • 2=edema and/or erythema of 2 digits • 3=edema and/or erythema of more than 2 digits • 4=severe arthritis of entire paw and digits
(§4) The Arthritic Index (AI) was calculated by the addition of individual paw scores.
(§5) Day 42 The mice were weighted and scored for signs of arthritis.

[2] = test system: murine model of collagen-induced arthritis; experiment: Collagen-induced arthritis model (CIA model), study number 2, Example 12; assay type: in vivo, female DBA/1J mice; set-up: key to Terminal Individual Paw Score, Front right, group mean / Terminal Individual Paw Score, Front left, group mean / Terminal Individual Paw Score, Rear right, group mean / Terminal Individual Paw Score, Rear left, group mean: 0 = no arthritis, 4 = severe arthritis of entire paw; key to Arthritic Index (AI), group mean: sum of four paw scores, each 0 = none to 4 = severe; details: for Terminal Individual Paw Score, Front left, group mean / Terminal Individual Paw Score, Front right, group mean / Terminal Individual Paw Score, Rear left, group mean / Terminal Individual Paw Score, Rear right, group mean: day 42; for Arthritic Index (AI), group mean: peptides 4 μg/mouse, methotrexate 1 mg/kg, subcutaneous; for effect on diseased mouse weight / incidence of disease / reduction in disease severity: once daily subcutaneous 4 μg/mouse; for incidence of disease: starting one hour prior to disease induction; for reduction in disease severity: at the termination of the study
Protocol: The CIA model as described in an Example 9 is the “standard” animal model for evaluation of anti-arthritic activity based on immunization with bovine collagen to develop antibodies against bone and cartilage.
as §1, with “Here we present data on investigating in vivo effect of the HERV-Env59, SG#2, and SG#5 and SG#15 peptides. The aim” for “The aim”, “Env59 ISU peptide, SG#2, SG#5 or SG#15 peptide on disease” for “Env59 ISU peptides on disease”
Day 0: The mice were weighted and injected subcutaneously at the nape of the neck as in the table below (table 6):
as §2, §3, §4, §5

THP-1 or HT-1080 cells = experiment: CellTiter-Blue Cell Viability Assay, toxicity profile of peptides; details: about 20 h exposure
Text: Here, we examined the cytotoxicity effect of peptides SG#1 to SG#17 (ID1031 to ID1047) on two human cell lines THP-1 or HT-1080 cells.
The CellTiter-Blue® Cell Viability Assay provides a homogenous, fluorometric method for estimating the number of viable cells present in multiwall plates. It uses the indicator dye resazurin to measure the metabolic capacity of cells—an indicator of cell viability. Viable cells retain the ability to reduce resazurin into resorufin, which is highly fluorescent.
The CellTiter-Blue® Reagent is a buffered solution containing highly purified resazurin. Resazurin is dark blue in color and has little intrinsic fluorescence. However, when it is reduced to resorufin, it becomes pink and highly fluorescent (579EX/584EM).
• 1. Set up 96-well assay plates containing cells in culture medium. For HT-1080, plate 1.6×10^4 cells per well on the Day 1 of the experiment. Cells are plated in 100 μl complete culture medium (DMEM) per well. • 2. On day 2, gently remove medium and add 50 μl of complete DMEM medium, add peptides and vehicle controls to appropriate wells so the final volume is 100 μl in each well. Supplement with complete DMEM where necessary. • 3. Culture cells for the desired test exposure period, about 20 h. • 4. On day 3, remove assay plates from 37° C. incubator and add 20 μl/well of CellTiter-Blue® Reagent. • 5. Shake for 10 seconds. • 6. Incubate using standard cell culture conditions for 4 hours. • 7. Shake plate for 10 seconds and record fluorescence at 560/590 nm
Toxicity profile for peptides SG#1 to SG#17 (ID1031 to ID1047). All peptides were tested at the dosage increment (10 nm, 30 nM, 100 nM, 1 μM, 10 μM, 30 μM, 100 μM and 300 μM).

## CN(Cc1cnc2nc(N)nc(N)c2n1)c1ccc(C(=O)N[C@@H](CCC(=O)O)C(=O)O)cc1 [Methotrexate, reference compound]
[1]; day 42
  terminal individual paw score, Front left, group mean: 0
  terminal individual paw score, Front right, group mean: 0
  terminal individual paw score, Rear left, group mean: 0
  terminal individual paw score, Rear right, group mean: 0
[1]; study day 21
  Arthritic Index (AI), group mean: 0
[1]; study day 22
  Arthritic Index (AI), group mean: 0
[1]; study day 25
  Arthritic Index (AI), group mean: 0
[1]; study day 27
  Arthritic Index (AI), group mean: 0
[1]; study day 29
  Arthritic Index (AI), group mean: 0
[1]; study day 32
  Arthritic Index (AI), group mean: 0
[1]; study day 34
  Arthritic Index (AI), group mean: 0
[1]; study day 36
  Arthritic Index (AI), group mean: 0
[1]; study day 38
  Arthritic Index (AI), group mean: 0
[1]; study day 41
  Arthritic Index (AI), group mean: 0
[1]; study day 42
  Arthritic Index (AI), group mean: 0
[2]
  Terminal Individual Paw Score, Front left, group mean: 0
  Terminal Individual Paw Score, Front right, group mean: 0
  Terminal Individual Paw Score, Rear left, group mean: 0
  Terminal Individual Paw Score, Rear right, group mean: 0
[2]; study day 14
  Arthritic Index (AI), group mean: 0
[2]; study day 21
  Arthritic Index (AI), group mean: 0
[2]; study day 25
  Arthritic Index (AI), group mean: 0
[2]; study day 27
  Arthritic Index (AI), group mean: 0
[2]; study day 29
  Arthritic Index (AI), group mean: 0
[2]; study day 32
  Arthritic Index (AI), group mean: 0
[2]; study day 34
  Arthritic Index (AI), group mean: 0
[2]; study day 36
  Arthritic Index (AI), group mean: 0
[2]; study day 39
  Arthritic Index (AI), group mean: 0
[2]; study day 41
  Arthritic Index (AI), group mean: 0
[2]; study day 42
  Arthritic Index (AI), group mean: 0

## CC[C@H](C)[C@H](NC(=O)[C@H](CO)NC(=O)[C@H](CC(C)C)NC(=O)CNC(=O)[C@H](CCCCNC(=O)[C@H](CC(C)C)NC(=O)CNC(=O)[C@H](CCCNC(=N)N)NC(=O)[C@H](CCCNC(=N)N)NC(=O)[C@H](CC(N)=O)NC(=O)[C@H](CCC(N)=O)NC(=O)[C@@H](N)CC(C)C)NC(=O)[C@H](CC(C)C)NC(=O)CNC(=O)[C@H](CCCNC(=N)N)NC(=O)[C@H](CCCNC(=N)N)NC(=O)[C@H](CC(N)=O)NC(=O)[C@H](CCC(N)=O)NC(=O)[C@@H](N)CC(C)C)C(=O)N[C@@H](CC(C)C)C(=O)N[C@@H](CC(C)C)C(=O)N[C@@H](CC(N)=O)C(=O)N[C@@H](CCC(=O)O)C(=O)N[C@@H](CCC(=O)O)C(=O)O [SG#16] (I: H-LQNRRGLKGLSILLNEE-OH / II: H-LQNRRGL; amide I:8-II:C)
THP-1 or HT-1080 cells
  Toxicity yes/no at the 300 μM conc.: No

## GLSILLNEECGPGPGP (Possibly HERV) [SG#5]
THP-1 or HT-1080 cells
  Toxicity yes/no at the 300 μM conc.: No
[2]
  Terminal Individual Paw Score, Front left, group mean: 1.3
  Terminal Individual Paw Score, Front right, group mean: 1.1
  Terminal Individual Paw Score, Rear left, group mean: 0.3
  Terminal Individual Paw Score, Rear right, group mean: 1.0
  effect on diseased mouse weight: no effect
  incidence of disease: 80%
  reduction in disease severity: 70%
[2]; study day 14
  Arthritic Index (AI), group mean: 0
[2]; study day 21
  Arthritic Index (AI), group mean: 0
[2]; study day 25
  Arthritic Index (AI), group mean: 0
[2]; study day 27
  Arthritic Index (AI), group mean: 0.0
[2]; study day 29
  Arthritic Index (AI), group mean: 0.9
[2]; study day 32
  Arthritic Index (AI), group mean: 1.1
[2]; study day 34
  Arthritic Index (AI), group mean: 1.3
[2]; study day 36
  Arthritic Index (AI), group mean: 2.1
[2]; study day 39
  Arthritic Index (AI), group mean: 3.3
[2]; study day 41
  Arthritic Index (AI), group mean: 3.5
[2]; study day 42
  Arthritic Index (AI), group mean: 3.6

## LNRKAIGLSILLNEECGPGPGP (Possibly HERV) [SG#6]
THP-1 or HT-1080 cells
  Toxicity yes/no at the 300 μM conc.: No

## LQNKKGLGLSILLNEECGPGPGP (Possibly HERV) [SG#9]
THP-1 or HT-1080 cells
  Toxicity yes/no at the 300 μM conc.: No

## LQNKRGLGLSILLNEECGPGPGP (Possibly HERV) [SG#8]
THP-1 or HT-1080 cells
  Toxicity yes/no at the 300 μM conc.: No

## LQNRRGLDLSILLNEECGPGPGP (Possibly HERV) [SG#3]
THP-1 or HT-1080 cells
  Toxicity yes/no at the 300 μM conc.: No

## LQNRRGLGLSILLNC (Possibly HERV) [SG#4]
THP-1 or HT-1080 cells
  Toxicity yes/no at the 300 μM conc.: No

## LQNRRGLGLSILLNEE [SG#13]
THP-1 or HT-1080 cells
  Toxicity yes/no at the 300 μM conc.: No

## LQNRRGLGLSILLNEECEEGPGPGP (Possibly HERV) [SG#2]
THP-1 or HT-1080 cells
  Toxicity yes/no at the 300 μM conc.: No
[2]
  Terminal Individual Paw Score, Front left, group mean: 0.4
  Terminal Individual Paw Score, Front right, group mean: 0.4
  Terminal Individual Paw Score, Rear left, group mean: 0.1
  Terminal Individual Paw Score, Rear right, group mean: 0.5
  effect on diseased mouse weight: no effect
  incidence of disease: 30%
  reduction in disease severity: 90%
[2]; study day 14
  Arthritic Index (AI), group mean: 0
[2]; study day 21
  Arthritic Index (AI), group mean: 0
[2]; study day 25
  Arthritic Index (AI), group mean: 0
[2]; study day 27
  Arthritic Index (AI), group mean: 0.4
[2]; study day 29
  Arthritic Index (AI), group mean: 0.4
[2]; study day 32
  Arthritic Index (AI), group mean: 0.9
[2]; study day 34
  Arthritic Index (AI), group mean: 0.9
[2]; study day 36
  Arthritic Index (AI), group mean: 0.9
[2]; study day 39
  Arthritic Index (AI), group mean: 0.9
[2]; study day 41
  Arthritic Index (AI), group mean: 1.0
[2]; study day 42
  Arthritic Index (AI), group mean: 1.4

## LQNRRGLGLSILLNEECGPGPGP [SG#10]
THP-1 or HT-1080 cells
  Toxicity yes/no at the 300 μM conc.: No

## LQNRRGLGLSILLNEECGPGPGP [SG#17] (Possibly HERV)
THP-1 or HT-1080 cells
  Toxicity yes/no at the 300 μM conc.: No

## LQNRRGLGLSILLNEECGPKK (Possibly HERV) [SG#11]
THP-1 or HT-1080 cells
  Toxicity yes/no at the 300 μM conc.: No

## LQNRRGLGLSILLNEECKKGPGPGP (Possibly HERV) [SG#1]
THP-1 or HT-1080 cells
  Toxicity yes/no at the 300 μM conc.: No

## LQNRRGLGLSILLNEELQNRRGL [SG#14]
THP-1 or HT-1080 cells
  Toxicity yes/no at the 300 μM conc.: No

## LQNRRGLGLSILLNEELQNRRGLC (Possibly HERV) [SG#12]
THP-1 or HT-1080 cells
  Toxicity yes/no at the 300 μM conc.: No

## LQNRRGLLQNRRGLGLSILLNEE (Possibly HERV) [SG#15]
THP-1 or HT-1080 cells
  Toxicity yes/no at the 300 μM conc.: No
[2]
  Terminal Individual Paw Score, Front left, group mean: 0.1
  Terminal Individual Paw Score, Front right, group mean: 0
  Terminal Individual Paw Score, Rear left, group mean: 0.3
  Terminal Individual Paw Score, Rear right, group mean: 0
  effect on diseased mouse weight: no effect
  incidence of disease: 30%
  reduction in disease severity: 97%
[2]; study day 14
  Arthritic Index (AI), group mean: 0
[2]; study day 21
  Arthritic Index (AI), group mean: 0
[2]; study day 25
  Arthritic Index (AI), group mean: 0
[2]; study day 27
  Arthritic Index (AI), group mean: 0.1
[2]; study day 29
  Arthritic Index (AI), group mean: 0.1
[2]; study day 32
  Arthritic Index (AI), group mean: 0.1
[2]; study day 34
  Arthritic Index (AI), group mean: 0.3
[2]; study day 36
  Arthritic Index (AI), group mean: 0.3
[2]; study day 39
  Arthritic Index (AI), group mean: 0.3
[2]; study day 41
  Arthritic Index (AI), group mean: 0.3
[2]; study day 42
  Arthritic Index (AI), group mean: 0.4
